Where only a bound is given, the exact number is not on record here.

This assay concerns the target human GluN1/GluN2B NMDA receptors (Homo sapiens, UniProt Q05586+Q13224). In words: Cell-based calcium flux (FLIPR) assay on cloned human NR1/NR2B ion channels expressed in mammalian cells. As to conditions: standard assay; human GluN1/GluN2B, calcium flux (FLIPR), glutamate ~EC80. The procedure, abridged:
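Calcium influx followed by FLIPR fluorescence after 5 min compound exposure and a further 5 min co-agonist challenge: 10 μM glycine with glutamate at ~EC80 (standard) or EC40 (HTS).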
On the technique in general: Calcium assays in cells follow changes in intracellular calcium, usually with a dye or a luminescent sensor.

Chain of human GluN1/GluN2B NMDA receptors (Q13224 27-1484, other chains not shown): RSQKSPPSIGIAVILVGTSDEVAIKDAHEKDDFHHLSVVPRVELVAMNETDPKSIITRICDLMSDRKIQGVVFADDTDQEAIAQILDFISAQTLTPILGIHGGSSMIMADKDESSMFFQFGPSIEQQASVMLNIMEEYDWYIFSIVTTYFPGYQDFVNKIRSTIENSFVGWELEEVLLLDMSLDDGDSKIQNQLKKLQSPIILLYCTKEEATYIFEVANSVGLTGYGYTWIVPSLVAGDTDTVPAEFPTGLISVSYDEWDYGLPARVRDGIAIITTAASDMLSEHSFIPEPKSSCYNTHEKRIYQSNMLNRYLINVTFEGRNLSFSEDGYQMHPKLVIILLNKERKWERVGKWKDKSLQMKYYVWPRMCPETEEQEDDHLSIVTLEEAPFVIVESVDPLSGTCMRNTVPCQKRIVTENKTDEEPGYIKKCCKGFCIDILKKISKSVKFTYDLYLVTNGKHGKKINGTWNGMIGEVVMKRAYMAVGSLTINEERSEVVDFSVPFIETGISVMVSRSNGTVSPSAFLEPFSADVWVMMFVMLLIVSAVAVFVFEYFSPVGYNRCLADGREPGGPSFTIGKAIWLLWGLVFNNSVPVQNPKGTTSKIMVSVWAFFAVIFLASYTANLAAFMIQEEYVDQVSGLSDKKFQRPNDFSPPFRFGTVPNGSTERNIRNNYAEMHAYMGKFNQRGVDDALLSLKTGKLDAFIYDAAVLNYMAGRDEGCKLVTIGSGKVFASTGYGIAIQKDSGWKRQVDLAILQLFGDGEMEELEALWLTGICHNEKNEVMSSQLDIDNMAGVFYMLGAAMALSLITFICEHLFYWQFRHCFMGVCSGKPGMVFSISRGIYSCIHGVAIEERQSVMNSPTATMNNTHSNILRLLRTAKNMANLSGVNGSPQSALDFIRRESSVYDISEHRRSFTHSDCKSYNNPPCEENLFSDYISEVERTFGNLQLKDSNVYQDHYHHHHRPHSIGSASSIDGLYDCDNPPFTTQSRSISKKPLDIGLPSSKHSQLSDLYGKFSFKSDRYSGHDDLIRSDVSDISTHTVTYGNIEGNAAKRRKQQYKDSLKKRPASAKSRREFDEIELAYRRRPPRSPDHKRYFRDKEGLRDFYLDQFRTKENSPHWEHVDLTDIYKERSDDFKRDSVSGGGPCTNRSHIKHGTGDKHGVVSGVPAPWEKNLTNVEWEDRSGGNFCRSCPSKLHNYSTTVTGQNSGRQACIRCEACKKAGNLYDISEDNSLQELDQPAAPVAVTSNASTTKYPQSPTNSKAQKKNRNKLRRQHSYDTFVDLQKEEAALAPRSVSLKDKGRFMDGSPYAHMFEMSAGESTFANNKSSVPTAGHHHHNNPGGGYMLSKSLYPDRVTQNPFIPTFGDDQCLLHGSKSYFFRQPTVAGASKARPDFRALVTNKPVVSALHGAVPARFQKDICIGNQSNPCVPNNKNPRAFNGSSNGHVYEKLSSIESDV

In the case of `Cc1ccc(OCc2cn(-c3ccc(Cl)c(OC(F)F)c3)nn2)cn1` [Example 104, 5-[[1-[4-Chloro-3-(difluoromethoxy)phenyl]triazol-4-yl]methoxy]-2-methyl-pyridine], the IC50 turned out to be 0.729 µM.
The value for `FC(F)Oc1cc(-n2cc(COc3ncccc3Cl)nn2)ccc1Cl` [Example 105, 3-Chloro-2-[[1-[4-chloro-3-(difluoromethoxy)phenyl]triazol-4-yl]methoxy]pyridine] was 0.059 µM; that for `COc1cc(Cl)cnc1OCc1cn(-c2ccc(Cl)c(OC(F)F)c2)nn1` [Example 106, 5-Chloro-2-[[1-[4-chloro-3-(difluoromethoxy)phenyl]triazol-4-yl]methoxy]-3-methoxy-pyridine] was 0.276 µM.
Take `Fc1cccnc1OCc1cn(-c2ccc(Cl)c(OC(F)F)c2)nn1` [Example 107, 2-[[1-[4-Chloro-3-(difluoromethoxy)phenyl]triazol-4-yl]methoxy]-3-fluoro-pyridine]: the IC50 was 0.119 µM.
The value for `COc1cccnc1OCc1cn(-c2ccc(Cl)c(OC(F)F)c2)nn1` [Example 108, 2-[[1-[4-Chloro-3-(difluoromethoxy)phenyl]triazol-4-yl]methoxy]-3-methoxy-pyridine] was 0.114 µM.
`FC(F)c1cc(-n2cc(CNc3ncccn3)nn2)ccc1Cl` [Example 109, N-[[1-[4-Chloro-3-(difluoromethyl)phenyl]triazol-4-yl]methyl]pyrimidin-2-amine]: the IC50 was 1.26 µM.
The value for `FC(F)c1cc(-n2cc(CNc3ccncn3)nn2)ccc1Cl` [Example 110, N-[[1-[4-Chloro-3-(difluoromethyl)phenyl]triazol-4-yl]methyl]pyrimidin-4-amine] was 7.57 µM; that for `Fc1ccc(-n2cc(COc3ccccn3)nn2)cc1C(F)F` [Example 111, 2-[[1-[3-(Difluoromethyl)-4-fluoro-phenyl]triazol-4-yl]methoxy]pyridine] was 0.684 µM.
With `Fc1ccc(-n2cc(COc3ccc(Cl)cn3)nn2)cc1C(F)F` [Example 112, 5-Chloro-2-[[1-[3-(difluoromethyl)-4-fluoro-phenyl]triazol-4-yl]methoxy]pyridine] the figure was 0.056 µM; with `Cc1cccc(OCc2cn(-c3ccc(F)c(C(F)F)c3)nn2)n1` [Example 113, 2-[[1-[3-(Difluoromethyl)-4-fluoro-phenyl]triazol-4-yl]methoxy]-6-methyl-pyridine], 0.038 µM; with `Cc1ccc(OCc2cn(-c3ccc(F)c(C(F)F)c3)nn2)nc1` [Example 114, 2-[[1-[3-(Difluoromethyl)-4-fluoro-phenyl]triazol-4-yl]methoxy]-5-methyl-pyridine], 0.021 µM.
Regarding `Cc1ccnc(OCc2cn(-c3ccc(F)c(C(F)F)c3)nn2)c1` [Example 115, 2-[[1-[3-(Difluoromethyl)-4-fluoro-phenyl]triazol-4-yl]methoxy]-4-methyl-pyridine], the IC50 is 0.17 µM.
With `Cc1ccnc(OCc2cn(-c3ccc(F)c(OC(F)F)c3)nn2)c1` [Example 116, 2-[[1-[3-(Difluoromethoxy)-4-fluoro-phenyl]triazol-4-yl]methoxy]-4-methyl-pyridine], the IC50 is 0.102 µM.
For the compound `Fc1ccc(-n2cc(COc3ccc(Cl)cn3)nn2)cc1OC(F)F` [Example 117, 5-Chloro-2-[[1-[3-(difluoromethoxy)-4-fluoro-phenyl]triazol-4-yl]methoxy]pyridine], the IC50 is 0.073 µM.
With `Cc1ccc(OCc2cn(-c3ccc(F)c(OC(F)F)c3)nn2)nc1` [Example 118, 2-[[1-[3-(Difluoromethoxy)-4-fluoro-phenyl]triazol-4-yl]methoxy]-5-methyl-pyridine] the figure was 0.026 µM; with `Fc1ccc(-n2cc(COc3ccc(C(F)(F)F)cn3)nn2)cc1OC(F)F` [Example 119, 2-[[1-[3-(Difluoromethoxy)-4-fluoro-phenyl]triazol-4-yl]methoxy]-5-(trifluoromethyl)pyridine], 0.114 µM.
With `Cc1cnc(OCc2cn(-c3ccc(C(F)(F)F)s3)nn2)nc1` [Example 120, 5-Methyl-2-((1-(5-(trifluoromethyl)thiophen-2-yl)-1H-1,2,3-triazol-4-yl)methoxy)pyrimidine] the figure was 0.005 µM; with `Cc1cnc(OCc2nnn(-c3cccc(C(F)F)c3)c2C)nc1` [Example 149], 0.952 µM.
With `FC(F)c1cccc(-n2cc(CNc3ncc(Cl)cn3)nn2)c1` [Example 153, 5-Chloro-N-[[1-[3-(difluoromethyl)phenyl]triazol-4-yl]methyl]pyrimidin-2-amine] the figure was 0.216 µM; with `Cc1cnc(NCc2cn(-c3ccc(Cl)c(C(F)F)c3)nn2)nc1` [Example 154, N-[[1-[4-Chloro-3-(difluoromethyl)phenyl]triazol-4-yl]methyl]-5-methyl-pyrimidin-2-amine], 0.03 µM; with `Cc1cnc(OCc2cn(-c3cccc(C(F)F)c3)nn2)nc1C` [Example 155, 2-[[1-[3-(Difluoromethyl)phenyl]triazol-4-yl]methoxy]-4,5-dimethyl-pyrimidine], 0.006 µM.
Turning to `CC(=O)c1cnc(OCc2cn(-c3ccc(F)c(C(F)F)c3)nn2)nc1` [Example 156, 1-[2-[[1-[3-(Difluoromethyl)-4-fluoro-phenyl]triazol-4-yl]methoxy]pyrimidin-5-yl]ethanone], the IC50 came to 0.005 µM.
The value for `Fc1ccc(-n2cc(COc3ccccn3)nn2)cc1C(F)(F)F` [Example 158, 2-[[1-[4-Fluoro-3-(trifluoromethyl)phenyl]triazol-4-yl]methoxy]pyridine] was 3.04 µM; that for `OCc1ccnc(OCc2cn(-c3cccc(C(F)F)c3)nn2)n1` [Example 159, [2-[[1-[3-(Difluoromethyl)phenyl]triazol-4-yl]methoxy]pyrimidin-4-yl]methanol] was 0.408 µM; that for `OCc1cnc(OCc2cn(-c3cccc(C(F)F)c3)nn2)nc1` [Example 160, [2-[[1-[3-(Difluoromethyl)phenyl]triazol-4-yl]methoxy]pyrimidin-5-yl]methanol] was 0.173 µM.
The value for `Cc1cnc(OCc2cn(-c3cccc(C(F)F)c3)nn2)nc1N` [Example 161, 2-[[1-[3-(Difluoromethyl)phenyl]triazol-4-yl]methoxy]-5-methyl-pyrimidin-4-amine] was 0.055 µM.
The value for `CNC(=O)c1ccnc(OCc2cn(-c3ccc(F)c(C(F)F)c3)nn2)n1` [Example 162, 2-[[1-[3-(Difluoromethyl)-4-fluoro-phenyl]triazol-4-yl]methoxy]-N-methyl-pyrimidine-4-carboxamide] was more than 2.99 µM; that for `Fc1ccc(-n2cc(COc3ncc(Cl)cn3)nn2)cc1` [Example 164, 5-Chloro-2-[[1-(4-fluorophenyl)triazol-4-yl]methoxy]pyrimidine] was 0.371 µM; that for `Fc1ccc(-n2cc(COc3ncc(N4CCC4)cn3)nn2)cc1OC(F)F` [Example 165, 5-(Azetidin-1-yl)-2-[[1-[3-(difluoromethoxy)-4-fluoro-phenyl]triazol-4-yl]methoxy]pyrimidine] was 0.016 µM.
In the case of `Fc1ccc(-n2cc(COc3nccc(N4CCC(F)(F)C4)n3)nn2)cc1OC(F)F` [Example 166, 2-[[1-[3-(Difluoromethoxy)-4-fluoro-phenyl]triazol-4-yl]methoxy]-4-(3,3-difluoropyrrolidin-1-yl)pyrimidine], the IC50 is 0.144 µM.
As for `Nc1nc(OCc2cn(-c3ccc(F)c(OC(F)F)c3)nn2)ncc1F` [Example 167, 2-((1-(3-(Difluoromethoxy)-4-fluorophenyl)-1H-1,2,3-triazol-4-yl)methoxy)-5-fluoropyrimidin-4-amine], the IC50 was 0.013 µM.
`Fc1ccc(-n2cc(COc3nccc(N4CCCC4)n3)nn2)cc1OC(F)F` [Example 168, 2-[[1-[3-(Difluoromethoxy)-4-fluoro-phenyl]triazol-4-yl]methoxy]-4-pyrrolidin-1-yl-pyrimidine]: the IC50 worked out at 0.008 µM.
The value for `Fc1ccc(-n2cc(COc3nccc(N4CCCCC4)n3)nn2)cc1OC(F)F` [Example 169, 2-[[1-[3-(Difluoromethoxy)-4-fluoro-phenyl]triazol-4-yl]methoxy]-4-(1-piperidyl)pyrimidine] was 0.031 µM; that for `Fc1ccc(-n2cc(COc3nccc(N4CCOCC4)n3)nn2)cc1OC(F)F` [Example 170, 4-[2-[[1-[3-(Difluoromethoxy)-4-fluoro-phenyl]triazol-4-yl]methoxy]pyrimidin-4-yl]morpholine] was 0.26 µM; that for `CNc1ccnc(OCc2cn(-c3ccc(Cl)c(OC(F)F)c3)nn2)n1` [Example 171, 2-[[1-[4-Chloro-3-(difluoromethoxy)phenyl]triazol-4-yl]methoxy]-N-methyl-pyrimidin-4-amine] was 0.006 µM.
With `COc1cnc(OCc2nnn(-c3cccc(C(F)F)c3)c2C)nc1` [Example 172, 2-[[1-[3-(Difluoromethyl)phenyl]-5-methyl-triazol-4-yl]methoxy]-5-methoxy-pyrimidine] the figure was 0.468 µM; with `Cc1cnc(OCc2nnn(-c3ccc(F)c(C(C)(F)F)c3)c2C)nc1` [Example 173, 2-[[1-[3-(1,1-Difluoroethyl)-4-fluoro-phenyl]-5-methyl-triazol-4-yl]methoxy]-5-methyl-pyrimidine], 0.465 µM.
With `Cc1cnc(OCc2cn(-c3cccc(C)n3)nn2)nc1` [Example 174, 5-Methyl-2-[[1-(6-methyl-2-pyridyl)triazol-4-yl]methoxy]pyrimidine] the figure was more than 2.99 µM.
Consider `Cc1cnc(OCc2cn(-c3ccnc(C)c3)nn2)nc1` [Example 175, 5-Methyl-2-[[1-(2-methyl-4-pyridyl)triazol-4-yl]methoxy]pyrimidine], for which the IC50 came to 0.655 µM.
Regarding `Cc1cnc(OCc2cn(-c3cncc(C)c3)nn2)nc1` [Example 176, 5-Methyl-2-[[1-(5-methyl-3-pyridyl)triazol-4-yl]methoxy]pyrimidine], the IC50 came to 0.929 µM.
The value for `Cc1cnc(OCc2cn(-c3ccnc(Br)c3)nn2)nc1` [Example 177, 2-[[1-(2-Bromo-4-pyridyl)triazol-4-yl]methoxy]-5-methyl-pyrimidine] was 0.172 µM.

As a reminder, the IC50 is the concentration that inhibits the measured activity by half.
